Patent US7056938B1, “Method for scavenging radicals with urocanic acid, derivatives and analogues” (Academisch Ziekenhuis Bij De Univ., priority 1999, dated 2006)
Like-named read-outs stand apart in the source and are kept apart here. Marks after values point to notes of the source that are not given here.

Experiments:
[1] = deoxyribose (dR) degradation test, hydroxyl radical scavenging; type: biochemical; conditions: for SECOND ORDER RATE CONSTANT for reaction with hydroxyl radicals: mean of n slopes, sodium phosphate buffer pH 7.2
Procedure: Trans-UCA, cis-UCA, related imidazoles and non-imidazole compounds were tested with regard to their ability to compete with deoxyribose to scavenge hydroxyl radicals. On exposure to hydroxyl radicals deoxyribose is degraded into malondialdehyde, which reacts with thiobarbituric acid to form a pink chromogen. Powerful hydroxyl-radical scavengers will compete with deoxyribose, resulting in a reduced amount of malondialdehyde. Ten compounds, UCA, UCA analogues, alanine and uric acid (FIG. 1) were tested on their ability to scavenge hydroxyl radicals.
Method: the deoxyribose (dR) degradation test. The test was analogous to an earlier described method. Briefly, the reactions were performed in 5 mL screw cap glass tubes in a final volume of 1.0 mL sodium phosphate buffer (50 mM; pH 7.2), containing 3.0 mM 2 deoxy-D-ribose, 0.5 mM hydrogen peroxide and one of the test compounds at graded concentrations. The reaction was started by the addition of premixed disodium EDTA and ferrous iron solution (final concentrations 0.5 mM and 0.2 mM, respectively). The mixture was left for 15 minutes at room temperature. After addition of 1.0 mL 1% thiobarbituric acid in 50 mM NaOH and 0.75 mL 2.8% trichloroacetic acid, the tubes were heated for 20 minutes in a boiling water bath. The pink color was read at 532 nm and reciprocal absorption values were plotted against the concentration of the test compound after subtraction of appropriate blanks. A series of six duplicate determinations from test compound dilutions was employed to construct a graph slope for the calculation of a rate constant value. The mean, SD, number of rate constants and the percentage of inhibition of deoxyribose degradation, calculated for each test compound, are listed. Results. All second-order rate constants for reaction with hydroxyl radicals and, in addition, the percentage inhibition of deoxyribose degradation with equimolar concentrations (3 mM) of scavenger are summarized in Table 1. Trans-UCA and cis-UCA are substantially more powerful in scavenging hydroxyl radicals (8.0 and 7.1×10^3 M^−1,s^−1, respectively), than the other 4-(5-)-substituted imidazoles, including L-histidine (2.6×10^2 M^−1,s^−1). L-histidine, the precursor of UCA, was included as a known moderate scavenger with structural similarities to UCA. L-alanine was used as a known poor scavenger. Trans-FAA was tested as a non-imidazole acrylic acid derivative, having a furan ring instead.
FIG. 2. A determination of the second order rate constants of trans-UCA and cis-UCA with hydroxyl radicals. The rate constant was derived from the slope of the line (k=slope×kdR×[dR]×A0), where A0 is the absorbance, measured in the absence of hydroxyl radical scavenger. KdR was taken as 3.1×10^9 M^−1,s^−1, derived from pulse radiolysis studies, and [dR]=3 mM. […] The other scavengers were studied similarly.

rat = conditions: oral rat; cited from earlier work
[2] = system: ear swelling response from BALB/c mice; assay: inhibition of contact hypersensitivity, ear swelling response; conditions: for inhibition of CHS (in words): as ammonium salts
[3] = Fenton oxidation of UCA (Fe2+ / hydrogen peroxide, HPLC); type: physicochemical
Procedure: Trans-UCA and cis-UCA were separated from each other and from several UCA oxidation products on a 4.6×250 mm Alltima C18 and Luna C18 reversed-phase column (Alitech, Deerfield, Ill. and Phenomenex, Torrence, Calif., resp.) with a flow of 0.8 mL/min, delivered by P-3500 HPLC-pumps (Pharmacia, Uppsala, Sweden). Samples of 20 to 200 μL were injected by a Promis II autosampler (Spark Holland, Emmen, The Netherlands) and chromatographic data were recorded on an SP 4270 integrator (Spectra Physics, San Jose, Calif.). Peak area data from samples were only processed under identical HPLC circumstances. A UV-detector (Applied Biosystems, model 759A, Foster City, Calif.) was set for 226 nm detection. Isocratic elution was performed with 10 mM ammonium formate buffer, containing 0.2–0.8 mM tetrabutylammonium(TBA)formate and 1% acetonitrile (pH 7.2). Collected fractions were acidified with formic acid up to a final concentration of 100 mM and passed through C18 could phase extraction columns (J T Baker, Deventer, The Netherlands) in order to remove TBA.
[…] In addition, two hydroxyl-radical-generating systems with copper ions (Cu^2+) were used, consisting of 50 μM Cu^2+ with either 500 μM hydrogen peroxide or 5 mM ascorbic acid.
In the next series of experiments we studied the Fenton oxidation of UCA, representing another natural oxidation process. Trans-UCA and cis-UCA isomers were Fenton oxidized by ferorus ions (Fe^2+) and hydrogen peroxide at physiological concentrations. The initial hydrogen peroxide concentration was 500 μM and the ferrous ion concentration was varied from 0 to 500 μM. In all Fenton oxidation reactions the degree of UCA-isomer breakdown was calculated from their reduced peak areas. The oxidation reaction must have been completed within 2 minutes for all reaction conditions, because no further breakdown was observed after prolonged incubation.
When the Fenton reaction was performed in water instead of phosphate buffer, the oxidative breakdown of trans-UCA was enhanced irrespective of the UCA concentration. The turbidity seen in reactions performed in phoshate buffer (10 mM) with high Fe^2+ concentration (>100 μM) was probably due to the formation of insoluble, iron phosphate, thereby reducing the free availability of Fe^2+. Table 3 summarizes the difference between water and phosphate medium for trans-UCA at an initial concentration of 40 μM with respect to its breakdown and the formation of Fenton-oxidation products. Similarly to the photo-oxidation experiments, the peak areas of the 8 major oxidation products were summed. […] A close resemblance was observed between the chromatographic patterns of UCA Fenton oxidation products (not shown) and those of UCA photo-oxidation products. Three of them has been identified (vide infra).
In another series of experiments we studied the Fenton oxidation of UCA, representing another natural oxidation process. The initial hydrogen peroxide concentration was 500 μM in all experiments and the ferrous ion concentration was varied from 0 to 400 μM. Four sets of conditions were compared: […] in phosphate buffer pH 7.2, 2. Fe^2+ in phosphate buffer plus EDTA, 3. Fe^2− without buffer with a initial pH of 5.5–5.3 and 4. Cu^2+ in phosphate buffer plus ascorbate. The degree of breakdown was similar for both UCA isomers.

[4] = [SCAVENGER] = [DEOXYRIBOSE] = 3 Mm

Structure (SMILES) | hydroxyl radical scavenging ability (in words) [1] | SECOND ORDER RATE CONSTANT for reaction with hydroxyl radicals [1] | INHIBITION of DEOXYRIBOSE DEGRADATION [1, 4] | other results
Cc1ncc[nH]1 [2-Methylimidazole, 2-methylimidazole] | stronger hydroxyl radical scavengers | 1.17e+10 M⁻¹ s⁻¹ |  | INHIBITION of DEOXYRIBOSE DEGRADATION ([1]; 15 min, 3 mM, pH 7.2): 76%; LD50 (rat): 1500 mg/kg
O=C(O)CCc1c[nH]cn1 [Dihydrourocanic acid, 3-(imidazol-4-yl)-propionic acid] | moderate scavenging ability | 3.7e+09 M⁻¹ s⁻¹ |  | INHIBITION of DEOXYRIBOSE DEGRADATION ([1]; 15 min, 3 mM, pH 7.2): 34%
O=CC(=O)O [Glyoxylic acid, glyoxylic acid] |  |  |  | inhibition of CHS (in words) [2]: did not exhibit significant inhibition
O=Cc1c[nH]cn1 [ImCHO, imidazole-4-carboxaldehyde] |  |  |  | yield of ImCOOH from ImCHO as starting material ([3]; after Fenton- or photooxidation): ~100%
O=C(O)Cc1c[nH]cn1 [Imidazole-4acetic acid, imidazole-4-acetic acid] | moderate scavenging ability | 2.2e+09 M⁻¹ s⁻¹ | 30% | 
C[C@H](N)C(=O)O [L-Alanine, L-alanine] |  | 1e+08 M⁻¹ s⁻¹ | 2% | 
N[C@@H](Cc1c[nH]cn1)C(=O)O [L-Histidine, L-histidine] |  | 2.6^(c) × 10^9 M^−1 · s^−1 | 34% | rate constant for scavenging hydroxyl radicals [1]: 2.6e+09 M⁻¹ s⁻¹
O=c1[nH]c(=O)c2[nH]c(=O)[nH]c2[nH]1 [Uric acid, uric acid] |  | 2.78e+10 M⁻¹ s⁻¹ |  | INHIBITION of DEOXYRIBOSE DEGRADATION ([1]; 15 min, 3 mM, pH 7.2): 91%
O=C(O)/C=C\c1c[nH]cn1 [cis-Urocanic acid] |  | 7.1e+09 M⁻¹ s⁻¹ | 64% | second order rate constant in the particular set of FIG. 2 ([1]; single set of FIG. 2, kdR 3.1×10^9, [dR]=3 mM): 7.33 ×10^9 M^−1,s^−1; ear swelling ([2]; 1 g/l, maximum normalized to 100%): 31%; broken down by the unbuffered Fenton oxidation system ([3]; initial UCA concentration 250 μM, unbuffered): 75%
c1c[nH]cn1 [imidazole] | stronger scavengers than the UCA isomers |  |  | 
O=C(O)C(=O)O [oxalic acid] |  |  |  | inhibition of CHS (in words) [2]: did not exhibit significant inhibition
O=C(O)/C=C/c1ccco1 [trans-2-Furylacylic acid, trans-2-furylacrylic acid] | very poor scavenging ability | <1e+08 M⁻¹ s⁻¹ |  | INHIBITION of DEOXYRIBOSE DEGRADATION [1]: <2%
